In patent US12577273B2, “Small molecule modulators of gut bacterial bile acid metabolism” (priority 2019, dated 2026):
Values joined by “and” are separate entries in the source; they are usually repeats but may differ in a detail not shown here. Identical values can stand only once. “Also recorded” adds a separate entry of the source. Values belong to the molecule of their own block, whether it stands above or below them.

What was measured:
B. theta BSH [1] = molecular target: T1, B. theta BSH (Bacteroides thetaiotaomicron, UniProt Q8A600); assay: Enzyme kinetics (ninhydrin assay), B. theta BSH; format: biochemical; conditions: for deconjugation of substrate by purified B. theta BSH (in words): ninhydrin-based assay
Protocol: (§1) Enzyme Kinetics. […] This solution was preheated to 37° C. in a water bath. 20 μL of a conjugated bile acid in DMSO at appropriate concentration was preheated to 37° C. in a water bath and added to the above solution. […] The cloudy solution was centrifuged at 4,200 g for 15 mins. 10 μL of the supernatant was added to 190 μL of ninhydrin mix (15 mL of 1% [wt/vol] ninhydrin in 0.5 M sodium citrate at pH 5.5, 36 mL glycerol and 6 mL 0.5 M sodium citrate buffer at pH 5.5) and the mixture was heated to 100° C. in a BioRad thermocycler for 18 mins. The obtained solution was cooled at 4° C. for 20 mins and absorbance was measured at 570 nm using a spectrophotometer (Molecular Devices).

B. longum BSH [2] = molecular target: T2, B. longum BSH (Bifidobacterium longum, UniProt Q9KK62); assay: Enzyme kinetics (ninhydrin assay), B. longum BSH; conditions: substrate of B. longum BSH
T2 sequence (Q9KK62 1-317): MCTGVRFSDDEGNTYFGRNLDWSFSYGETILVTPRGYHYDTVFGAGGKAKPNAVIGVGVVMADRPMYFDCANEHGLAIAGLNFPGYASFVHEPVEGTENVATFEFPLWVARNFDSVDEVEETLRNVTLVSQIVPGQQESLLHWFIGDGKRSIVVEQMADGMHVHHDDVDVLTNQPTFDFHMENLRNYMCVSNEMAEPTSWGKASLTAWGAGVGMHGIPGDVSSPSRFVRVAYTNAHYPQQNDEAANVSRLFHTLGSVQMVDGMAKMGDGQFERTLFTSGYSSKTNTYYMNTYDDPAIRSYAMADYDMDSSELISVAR
Protocol: as §1

B. theta cultures = assay: BSH inhibition in growing B. theta cultures, single substrate (GUDCA or TUDCA); format: cell-based, Bacteroides thetaiotaomicron; conditions: 10 μM inhibitor; for BSH inhibition in B. theta cultures compared to 7 (in words): 100 μM TUDCA; for deconjugation of GUDCA in growing B. theta cultures (in words): 100 μM GUDCA
B. theta BSH [3] = molecular target: T1, B. theta BSH; assay: Inhibitor screen using rBSH, B. theta BSH (UPLC-MS % deconjugation); conditions: 100 μM inhibitor; for inhibition of B. theta BSH (in words): 30 min preincubation, monitored over 21 hours; for % deconjugation of TDCA / % deconjugation of TUDCA / % deconjugation of TβMCA / % deconjugation of TCA: 200 nM rBSH, replicates 1-3
[4] = test system: three Gram negative and three Gram positive strains of human gut bacteria; assay: BSH inhibition in growing cultures of six gut bacterial strains (overall statements); format: cell-based; conditions: 100 μM inhibitor, 100 μM conjugated bile acid mixture
[5] = test system: BSH activity in conventional mouse feces; assay: Screen of inhibitors in conventional mouse feces; format: biochemical; conditions: 20 μM inhibitor, 30 min, then GCDCA-d4 100 μM, 18 hours
Protocol: Screen of Inhibitors in Conventional Mouse Feces. […] The tubes were then frozen in dry ice for 5 mins and upon thawing were diluted with an equal volume of methanol. […] The supernatant was removed into a clean eppendorf tube and centrifuged again. […] The concentration of product detected from these assays was reported directly.

B. longum BSH [6] = molecular target: T2, B. longum BSH; assay: Inhibitor screen using rBSH, B. longum BSH (UPLC-MS % deconjugation); format: biochemical, Bifidobacterium longum SBT2928; parameters: His6 (C); made in house; host or cells: Escherichia coli (as for the B. theta enzyme); conditions: 100 μM inhibitor; for % deconjugation of TCA / % deconjugation of TDCA / % deconjugation of TUDCA / % deconjugation of TβMCA: 200 nM rBSH, bile acid pool, replicates 1-3
Protocol: B. longum rBSH. Recombinant BSH from B. longum SBT2928 was expressed and purified as above, except 0.25 mM IPTG was used for protein expression and 1 mM TCEP for protein purification.
Inhibitor Screen Using rBSHs.

[7] = Table 1, substrate of B. Theta BSH, PBS pH 7.5, 37° C.
[8] = Table 3, substrate of B. theta BSH, mean ± SEM, n = 3
[9] = FIG. 2a, 2 hours, bile acid pool
[10] = FIG. 2a, 2 hours, pool of four tauro conjugated bile acids 25 μM each
[11] = FIG. 2a, 21 hours, bile acid pool
[12] = Supplementary FIG. 3a, 5 hours, bile acid pool

SMILES: C[C@H](CCC(=O)NCCS(=O)(=O)O)[C@H]1CC[C@H]2[C@@H]3[C@H](O)C[C@@H]4C[C@H](O)CC[C@]4(C)[C@H]3CC[C@]12C [TCDCA, taurochenodeoxycholic acid]
Kcat (B. theta BSH [1]; [7]): 1.69 s⁻¹ | Km (B. theta BSH [1]; [7]): 2.86 mM | Kcat (B. theta BSH [1]; [8]): 0.0717 ± 0.01 s⁻¹ | Km (B. theta BSH [1]; [8]): 2.9 ± 1.8 mM | Kcat (B. longum BSH [2]; Table 1, PBS pH 7.5, 37° C.): 1.807 s⁻¹ | Km (B. longum BSH [2]; Table 1, PBS pH 7.5, 37° C.): 7.75 mM | Kcat (B. longum BSH [2]; Table 3, mean ± SEM, n = 3): 0.0767 ± 0.01 s⁻¹ | Km (B. longum BSH [2]; Table 3, mean ± SEM, n = 3): 7 ± 2.3 mM

SMILES: CC(=O)CC[C@@H](C)[C@H]1CC[C@H]2[C@@H]3[C@H](O)C[C@@H]4C[C@H](O)CC[C@]4(C)[C@H]3CC[C@]12C [Compound 8]
BSH inhibition in B. theta cultures compared to 7 (in words) (B. theta cultures): less potent inhibitors of B. theta BSH than compound 7; also recorded: did not display BSH inhibition against either recombinant protein or B. theta cultures | inhibition of B. theta BSH (in words) (B. theta BSH [3]): did not display BSH inhibition; also recorded: did not display BSH inhibition against either recombinant protein or B. theta cultures

SMILES: C[C@H](CCC(=O)NCCS(=O)(=O)O)[C@H]1CC[C@H]2[C@@H]3CC[C@@H]4C[C@H](O)CC[C@]4(C)[C@H]3C[C@H](O)[C@]12C [TDCA, taurodeoxycholic acid]
Kcat (B. theta BSH [1]; [7]): 1.682 s⁻¹ | Km (B. theta BSH [1]; [7]): 3.35 mM | Kcat (B. theta BSH [1]; [8]): 0.215 ± 0.01 s⁻¹ | Km (B. theta BSH [1]; [8]): 3.4 ± 0.6 mM | deconjugation of substrate by purified B. theta BSH (in words) (B. theta BSH [1]): preference for TDCA deconjugation | Kcat (B. longum BSH [2]; Table 1, PBS pH 7.5, 37° C.): 1.695 s⁻¹ | Kcat (B. longum BSH [2]; Table 3, mean ± SEM, n = 3): 0.0583 ± 0.0017 s⁻¹

SMILES: C[C@H](CCC(=O)NCCS(=O)(=O)O)[C@H]1CC[C@H]2[C@@H]3[C@H](O)C[C@@H]4C[C@H](O)CC[C@]4(C)[C@H]3C[C@H](O)[C@]12C [TCA, taurocholic acid]
deconjugation of substrate by purified B. theta BSH (in words) (B. theta BSH [1]): did not deconjugate | Kcat (B. longum BSH [2]; Table 1, PBS pH 7.5, 37° C.): 1.82 s⁻¹

SMILES: C[C@H](CCC(=O)NCCS(=O)(=O)O)[C@H]1CC[C@H]2[C@@H]3[C@@H](O)C[C@@H]4C[C@H](O)CC[C@]4(C)[C@H]3CC[C@]12C [TUDCA, tauroursodeoxycholic acid]
Kcat (B. theta BSH [1]; [7]): 1.807 s⁻¹ | Km (B. theta BSH [1]; [7]): 8.23 mM | Kcat (B. theta BSH [1]; [8]): 0.255 ± 0.013 s⁻¹ | Km (B. theta BSH [1]; [8]): 8.2 ± 1 mM | deconjugation of substrate by purified B. theta BSH (in words) (B. theta BSH [1]): displayed a preference | Kcat (B. longum BSH [2]; Table 1, PBS pH 7.5, 37° C.): 1.608 s⁻¹ | Kcat (B. longum BSH [2]; Table 3, mean ± SEM, n = 3): 0.015 ± 0.0033 s⁻¹

SMILES: Cc1cc2nc3c(=O)[nH]c(=O)nc-3n(C[C@H](O)[C@H](O)[C@H](O)CO)c2cc1C [Riboflavin, riboflavin, reference compound]
deconjugation / BSH inhibition in cultures of the six bacterial strains (in words) [4]: neither riboflavin nor CAPE displayed significant inhibitory activity against any of the Gram negative strains | inhibition of B. theta BSH (in words) (B. theta BSH [3]): did not display any inhibitory activity

SMILES: C[C@H](CCC(=O)CF)[C@H]1CC[C@H]2[C@@H]3[C@H](O)C[C@@H]4C[C@H](O)CC[C@]4(C)[C@H]3C[C@H](O)[C@]12C [Compound 9]
deconjugation of GUDCA in growing B. theta cultures (in words) (B. theta cultures): significantly diminished activity to inhibit B. theta BSH | deconjugation of GUDCA in growing B. theta cultures (in words) (B. theta cultures; listed as compound 9): significant deconjugation was observed | BSH inhibition in B. theta cultures compared to 7 (in words) (B. theta cultures): less potent inhibitors of B. theta BSH than compound 7; also recorded: significantly reduced ability to inhibit BSH deconjugation

% deconjugation of TDCA (B. theta BSH [3]; [9]): 97.26% and 96.13% and 94.56% | % deconjugation of TUDCA (B. theta BSH [3]; [9]): 94.07% and 91.62% and 89.81% | % deconjugation of TβMCA (B. theta BSH [3]; [9]): 32.07% and 29.34% and 22.69% | % deconjugation of TCA (B. theta BSH [3]; [10]): 0.47% and 1.15% and 0.30% | % deconjugation of TCA (B. theta BSH [3]; [11]): 1.50% and 0.85% and 1.80% | % deconjugation of TDCA (B. theta BSH [3]; [11]): 95.87% and 95.61% and 96.21% | % deconjugation of TUDCA (B. theta BSH [3]; [11]): 98.54% and 97.31% and 97.80% | % deconjugation of TβMCA (B. theta BSH [3]; [11]): 47.65% and 32.41% and 43.47% | % deconjugation of TCA (B. theta BSH [3]; [12]): 0.40% and 1.92% and 1.29% | % deconjugation of TDCA (B. theta BSH [3]; [12]): 99.59% and 99.50% and 99.01% | % deconjugation of TUDCA (B. theta BSH [3]; [12]): 98.43% and 98.54% and 97.17% | % deconjugation of TβMCA (B. theta BSH [3]; [12]): 26.17% and 45.65% and 37.57%
SMILES: C#CC(=O)CC[C@@H](C)[C@H]1CC[C@H]2[C@@H]3[C@H](O)C[C@@H]4C[C@H](O)CC[C@]4(C)[C@H]3CC[C@]12C [Compound 4]

SMILES: C[C@H](CCN=C=S)[C@H]1CC[C@H]2[C@@H]3[C@H](O)C[C@@H]4C[C@H](O)CC[C@]4(C)[C@H]3CC[C@]12C [Compound 1]
BSH activity in resuspended conventional mouse feces (in words) [5]: moderate BSH inhibition; also recorded: decreased deconjugation | inhibition of B. theta BSH (in words) (B. theta BSH [3]): modest inhibition | % deconjugation of TDCA (B. theta BSH [3]; [9]): 51.40% and 46.10% and 43.43% | % deconjugation of TUDCA (B. theta BSH [3]; [9]): 37.96% and 35.92% and 33.34% | % deconjugation of TβMCA (B. theta BSH [3]; [9]): 3.72% and 3.29% and 3.28% | % deconjugation of TCA (B. theta BSH [3]; [10]): 0.12% and 0.17% and 0.29% | % deconjugation of TCA (B. theta BSH [3]; [11]): 0.12% and 0.17% and 0.15% | % deconjugation of TDCA (B. theta BSH [3]; [11]): 45.18% and 51.87% and 45.19% | % deconjugation of TUDCA (B. theta BSH [3]; [11]): 34.40% and 41.24% and 37.45% | % deconjugation of TβMCA (B. theta BSH [3]; [11]): 3.18% and 4.28% and 3.11% | % deconjugation of TCA (B. theta BSH [3]; [12]): 0.25% and 0.00% and 0.21% | % deconjugation of TDCA (B. theta BSH [3]; [12]): 52.56% and 51.54% and 45.63% | % deconjugation of TUDCA (B. theta BSH [3]; [12]): 38.73% and 40.02% and 35.99% | % deconjugation of TβMCA (B. theta BSH [3]; [12]): 4.42% and 4.47% and 3.37% | inhibition of B. longum BSH (in words) (B. longum BSH [6]; 2 h, 5 h and 21 h timepoints): modest inhibition | % deconjugation of TCA (B. longum BSH [6]; FIG. 2b, 2 hours): 0.10% and 0.89% and 0.43% | % deconjugation of TDCA (B. longum BSH [6]; FIG. 2b, 2 hours): 7.25% and 4.34% and 2.20% | % deconjugation of TUDCA (B. longum BSH [6]; FIG. 2b, 2 hours): 2.12% and 1.09% and 0.61% | % deconjugation of TβMCA (B. longum BSH [6]; FIG. 2b, 2 hours): 2.49% and 0.05% and 0.03% | % deconjugation of TCA (B. longum BSH [6]; FIG. 2b, 21 hours): 9.02% and 3.00% and 8.03% | % deconjugation of TDCA (B. longum BSH [6]; FIG. 2b, 21 hours): 23.33% and 14.91% and 20.42% | % deconjugation of TUDCA (B. longum BSH [6]; FIG. 2b, 21 hours): 4.57% and 2.48% and 3.66% | % deconjugation of TβMCA (B. longum BSH [6]; FIG. 2b, 21 hours): 0.21% and 0.13% and 0.28% | % deconjugation of TCA (B. longum BSH [6]; Supplementary FIG. 3b, 5 hours): 4.13% and 4.57% and 4.31% | % deconjugation of TDCA (B. longum BSH [6]; Supplementary FIG. 3b, 5 hours): 9.85% and 11.26% and 11.96% | % deconjugation of TUDCA (B. longum BSH [6]; Supplementary FIG. 3b, 5 hours): 2.44% and 2.49% and 2.64% | % deconjugation of TβMCA (B. longum BSH [6]; Supplementary FIG. 3b, 5 hours): 0.10% and 0.11% (2×)
